Earlier results in patent EP1146906B1, “MUCOSAL DELIVERY SYSTEM” (Alk-Abelló A/S, priority 1999, dated 2000).
Like-named read-outs stand apart in the source and are kept apart here.

Settings: compared to the parenteral equivalent

bioavailability (after nasal administration): 10% | bioavailability (after oral administration): 1%
Substance: desmopression
